Results reported in paper PMC9452538, “The antimicrobial peptide LI14 combats multidrug-resistant bacterial infections” (Communications Biology, 2022).
≈ marks a conversion by molar mass, not a printed value. Like-named read-outs stand apart in the source and are kept apart here. Peptide text beside a SMILES is read from it.

Key:
[1] = system: K. pneumoniae ATCC 700603; assay: microbe, parasite or virus in culture; format: cell-based, Klebsiella pneumoniae; details: ATCC 700603
Summary of the method: (§1)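 Broth microdilution per CLSI 2021 guidelines. Exponential-phase bacteria were diluted 1:1000 into MHB, and 1.5 × 10^6 CFUs/mL suspension was mixed with serially varied peptide concentrations to determine MIC.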

[2] = system: K. pneumoniae D120 (mcr-8); assay: microbe, parasite or virus in culture; format: cell-based, Klebsiella pneumoniae; details: D120 (mcr-8)
Summary of the method: as §1

[3] = system: E. coli B2; format: cell-based, Escherichia coli; details: E. coli B2
Method: MRSA T144 and E. coli B2 in the exponential growth phase were incubated with LI14 peptide supplemented with 10 mM Na^+, K^+, Mg^2+, 10% Dulbecco’s modified Eagle medium (DMEM), and 10% fetal bovine serum (FBS) for 16–18 h. The stability of LI14 was evaluated by the change of its antibacterial activity under different conditions.
LI14 were preincubated for 1 h at various temperatures (40–121 °C), pH (2–12), and proteases (pepsin, trypsin, and papain, final concentration 1 mg/mL). […] Following the incubation with the proteases, the leftover protease was precipitated with acetonitrile and removed by centrifugation at 3000 × g, followed by a MIC test.
Supplementary Table 4 Thermal, pH, salts and protease stability of AMPs against
MRSA T144 and E. coli B2 (MIC, μg/mL).
Treatment MRSA T144 E. coli B2

[4] = system: S. aureus ATCC 29213, MRSA T144, E. coli ATCC 25922, E. coli B2; assay: Time-killing assay; format: cell-based; details: MHB
Method: Bacteria from the exponential phase were diluted into MHB at 1:1,000, and bacteria suspensions (~10^5 CFUs/mL for Gram-positive bacteria, ~10^6 CFUs/mL for Gram-negative bacteria) were mixed with various concentrations of LI14 peptide and incubated at 37 °C for 0.5, 1, 2, 4, and 12 h, respectively. At intervals, samples were serially diluted ten-fold and plated on MHA plates. The amount of primary CFUs/mL was determined after overnight incubation of bacterial colonies.

## CC[C@H](C)[C@H](NC(=O)[C@H](CCCNC(=N)N)NC(=O)[C@H](CS)NC(=O)[C@H](CC(C)C)NC(=O)[C@H](CCCCN)NC(=O)[C@H](CCCCN)NC(=O)[C@H](CC(C)C)NC(=O)[C@@H](NC(=O)[C@H](CCCNC(=N)N)NC(=O)[C@H](CS)NC(=O)[C@H](CC(C)C)NC(=O)[C@H](CCCCN)NC(=O)[C@H](CCCCN)NC(=O)[C@@H](N)CC(C)C)[C@@H](C)CC)C(N)=O [LI14] (H-LKKLCRILKKLCRI-NH2)
[1]
  MIC: 32 µg/mL (≈ 18.5 µM)
[2]
  MIC: 32 µg/mL (≈ 18.5 µM)
[3]; Control
  MIC: 4 µg/mL (≈ 2.32 µM)
[3]; KCl 10 mM
  MIC: 4 µg/mL (≈ 2.32 µM)
[3]; NaCl 10 mM
  MIC: 4 µg/mL (≈ 2.32 µM)
[3]; Serum (10%), fetal bovine serum
  MIC: 4 µg/mL (≈ 2.32 µM)
[3]; peptide preincubated 1 h at 40℃
  MIC: 4 µg/mL (≈ 2.32 µM)
[3]; peptide preincubated 1 h at 60℃
  MIC: 4 µg/mL (≈ 2.32 µM)
[3]; peptide preincubated 1 h at 80℃
  MIC: 4 µg/mL (≈ 2.32 µM)
[3]; peptide preincubated 1 h at 121℃
  MIC: 4 µg/mL (≈ 2.32 µM)
[3]; peptide preincubated 1 h at pH 2, readjusted to pH 7.2
  MIC: 4 µg/mL (≈ 2.32 µM)
[3]; peptide preincubated 1 h at pH 4, readjusted to pH 7.2
  MIC: 4 µg/mL (≈ 2.32 µM)
[3]; peptide preincubated 1 h at pH 6, readjusted to pH 7.2
  MIC: 4 µg/mL (≈ 2.32 µM)
[3]; peptide preincubated 1 h at pH 8, readjusted to pH 7.2
  MIC: 4 µg/mL (≈ 2.32 µM)
[3]; peptide preincubated 1 h at pH 10, readjusted to pH 7.2
  MIC: 4 µg/mL (≈ 2.32 µM)
[3]; peptide preincubated 1 h at pH 12, readjusted to pH 7.2
  MIC: 4 µg/mL (≈ 2.32 µM)
[4]; 8 μg/mL LI14, three tested strains, except for MRSA T144
  Killing of the tested strains at 12 h: completely eliminate
[4]; 32 μg/mL LI14, ~10^6 CFUs/mL, 37 °C
  Time to eliminate all E. coli strains: ≤ 0.5 h
